Legend:
prion-infected mice = details: cited from earlier work
wild-type mice = experiment: ISRIB treatment of wild-type littermates; assay type: in vivo, mouse
Description: The potential of ISRIB to modify the chondrodysplasia phenotype was tested by treating 13del and wild-type littermates with ISRIB or vehicle twice daily by intraperitoneal injection from E13.5 (onset of expression of 13del transgene) to postnatal day 20 (p20) (FIG. 8A).
ISRIB (SML0843, Sigma) was dissolved in DMSO to make a 5 mg/ml stock and stored at 4-degree. Animals were intraperitoneally injected with ISRIB ((103, 104) (2.5 mg/kg, diluted in 0.9% saline) or vehicle (5% DMSO in saline) from E13.5 till p20 stage. The animals were collected at p10 and p20 stages for further analysis.

13del mice = assay type: in vivo
mice = details: cited from earlier work
[1] = tested on: Mouse models of chondrodysplasia; details: cited from earlier work
[2] = tested on: congenital skeletal dysplasias; details: cited from earlier work
Fgf21 = Fgf21 expression after ER stress inducer tunicamycin in fibroblasts and ATDC5 cells; assay type: cell-based, mouse; details: NIH3T3 and MEF cells and ATDC5 cells, tunicamycin treatment
Description: FGF21 is a hormone with roles in glucose and lipid metabolism (74) and plays an survival role in the response to diverse stressful conditions, such as amino acid deprivation, mitochondrial stress and ER stress associated with diseases such as diabetes, cardiovascular disease (75-77).
Quantitative PCR was performed using SYBR-Green master mixture according to the manufacturer's instruction (Takara). Appropriate amounts of cDNA (or DNA) and primers were mixed with distilled water up to 10 μl and combined with equal amount of SYBR-Green master mixture. The reaction was run on the StepOne Real Time PCR system (Applied Biosystems, A&B). The Ct (cycle threshold) is defined as the cycle number required for the fluorescent signal to cross the threshold. The relative expression levels of target genes are calculated by normalizing to the expression level of GAPDH using delta-delta-Ct (Relative expression level=2^−(Cttarget−CtGapdh)). Melting curve was also measured to detect the specificity of the primers.

[3] = 13del mice, after 20-days ISRIB treatment

Cn1cc(-c2ccc3c(c2)CCN3C(=O)Cc2cccc(C(F)(F)F)c2)c2c(N)ncnc21 [GSK2606414]
effect of restoring protein synthesis through PERK inhibition (prion-infected mice): neuroprotective | side effects (prion-infected mice): weight loss and pancreatic toxicity

O=C(COc1ccc(Cl)cc1)N[C@H]1CC[C@H](NC(=O)COc2ccc(Cl)cc2)CC1 [ISRIB]
effect on the limb growth plates in wild-type mice (wild-type mice; histology, p10): no observable effect | adverse effects on weight gain or body growth (wild-type mice; wild-type mice, ISRIB 2.5 mg/kg i.p. twice daily, E13.5 to p20): no adverse effects | amount of ATF4 and CHOP protein (13del mice; 13del HZ, p10): reduced | transcripts and protein level of downstream targets (ATF3, ERO1l and FGF21) (13del mice; 13del HZ, p10): down-regulation | Atf3+ cells in L3-L6 NP, growth plates or endplates (13del mice; 13del lumbar IVD, after ISRIB treatment): no Atf3^+ cell can be detected | ectopic NP expression of Opn (13del mice; 13del lumbar NP, 20-days treatment): greatly reduced | number of reprogrammed chondrocytes in the growth plates and endplates (13del mice; 13del mice): reduced | chondrocyte-like cells present in iAF (13del mice; [3]): fewer | regularity of inner annulus fibrosus (iAF) (13del mice; [3]): more regular | Bip transcripts in HZ (13del mice; 13del mice, p10, in situ hybridization): not affected | HZ expansion in tail intervertebral disc growth plates (13del mice; 13del mice, p10 and p20): reduced | HZ expansion in the limb growth plates (13del mice; 13del mice, p10 and p20): greatly reduced | number of SOX9+, Col2a1+ and Ppr+ cells in the HZ (13del mice; 13del mice, p10 and p20): diminished | number of Sox9+ and Col2a1+ premature cells in tail intervertebral disc growth plates (13del mice; 13del mice, p10 and p20): decreased | IVD abnormalities in 13del lumbar spine (endplate expansion, iAF structure) (13del mice; ISRIB 2.5 mg/kg): eased | overall adverse effect in treated mice (13del mice; ISRIB 2.5 mg/kg i.p., E13.5 to p20): without any obvious adverse effect | apoptosis in 13del HC (13del mice; TUNEL): did not induce apoptosis | dwarfism of 13del mice (body length) (13del mice; new born to juvenile stages, ISRIB 2.5 mg/kg i.p. twice daily, E13.5 to p20): markedly reduced | skeletal deformities, radiographic analyses (length of tibia/femur and spine, genu varum, pelvic bone orientation, coxa vara) (13del mice; p20, ISRIB 2.5 mg/kg i.p.): ameliorated | neurotrophic effects (mice): significant neurotrophic effects | overall toxicity (mice): no overall toxicity | pharmacokinetic properties (mice): acceptable

O=C(O)CCCc1ccccc1 [phenylbutyric acid]
efficacy in chondrodysplasia [1]: ineffective

Growth hormone: Growth hormone (GH) therapy used to treat dwarfism
effect in cases with severe spinal deformities ([2]; in vivo): worsened kyphosis and lordosis | efficacy for height gain ([2]; most congenital skeletal dysplasias): ineffective

tunicamycin
increase of Fgf21 expression (Fgf21): > 100 fold

Reference: patent US11759437B2, “Preventive and therapeutic approach for aberrant cell differentiation and ISR-associated diseases” (The University of Hong Kong, priority 2016, dated 2023)
